pIC50, pKd: −log10 of the molar value. Read-outs that look alike come from different tables or passages of the source. Where a SMILES comes first, the peptide text is derived from it. [ ]: non-standard residue; d: D form. pS = N[C@@H](COP(=O)(O)O)C(=O)O
What was measured:
14-3-3 zeta = target: T1, 14-3-3 zeta (Homo sapiens, UniProt P63104); experiment: Displacement of 32P-labeled phosphorylated Raf-259 peptide from immobilized GST/14-3-3 zeta (scintigraphy); type: binding
T1 construct: made in house; host or cells: E. coli DH5α (vector pGEX-KT)
T1 sequence (P63104 1-245): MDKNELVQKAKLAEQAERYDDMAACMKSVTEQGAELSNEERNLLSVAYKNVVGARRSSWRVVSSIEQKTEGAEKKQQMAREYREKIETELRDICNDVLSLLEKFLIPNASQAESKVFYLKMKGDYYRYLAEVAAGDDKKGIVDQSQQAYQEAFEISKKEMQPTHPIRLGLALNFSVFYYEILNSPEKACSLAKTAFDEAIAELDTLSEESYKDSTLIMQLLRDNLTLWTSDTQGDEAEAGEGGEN
Experimental: The 14-3-3 protein isoforms for use in binding studies with the above peptides were prepared as proteins fused with glutathione-S-transferase (GST) and immobilized to glutathione agarose beads. GST/14-3-3 fusion proteins were made by generating BamHI and EcoRI restriction endonuclease sites (underlined) at the 5' and 3' ends respectively of the 14-3-3 cDNAs by polymerase chain reaction (PCR) using the following isoform sequence specific pairs of primers: 14-3-3 beta, […] (SEQ ID NO: 11), […] (SEQ ID NO: 12); 14-3-3 eta […] (SEQ ID NO: 13), […] (SEQ ID NO: 14); 14-3-3 tau […] (SEQ ID NO: 15), […] (SEQ ID NO: 16); 14-3-3 zeta […] (SEQ ID NO: 17), […] (SEQ ID NO: 18). The cDNA products were digested with BamHI and EcoRI, subcloned into the vector pGEX-KT (Guan and Dixon, Anal Biochem 192: 262-7, 1991 which is incorporated by reference). The vector was used to transform the DH5α strain of E. Coli. GST-14-3-3 fusion protein expression in log-growth phase bacterial cultures was accomplished by induction with 100 μM isopropyl β-D-thiogalactopyranoside (IPTG; Gold Biotechnology, St. Louis) for 4 hours. Cells were disrupted by sonication and lysates, containing 1% Triton X-100, were incubated with glutathione agarose beads (Sigma, St. Louis) at 4° C. overnight. Fusion proteins were eluted by incubation with 10 mM reduced glutathione (Sigma, St. Louis) in phosphate buffered saline for 1 hour at room temperature, dialyzed in phosphate buffered saline and quantitated by Coomassie staining SDS polyacrylamine gels compared against bovine serum albumin standards.
The Raf-259 peptide (SEQ ID NO: 4) was phosphorylated in vitro using protein kinase A (PKA) and [^32 P]-γ-ATP following the manufacturers instruction (PKA, New England Biolabs) with 20 μCi of [^32 P]-γ-ATP (NEN-Dupont, 6000 Ci/mmol). The efficiency of phosphorylation was calculated to be between 7 and 12% based upon the specific activity of the labelled peptide.
The labeled peptide was then incubated with immobilized 14-3-3 zeta fusion protein and binding of the labelled peptide was measured. […] Binding was also sequence specific. […]

14-3-3 eta [1] = target: T2, 14-3-3 eta (Homo sapiens, UniProt Q04917); experiment: SPR competitive inhibition of 14-3-3 eta binding to phosphorylated Raf-259 peptide; conditions: isoform eta
T2 construct: made in house; host or cells: E. coli DH5α (vector pGEX-KT)
T2 sequence (Q04917 1-246): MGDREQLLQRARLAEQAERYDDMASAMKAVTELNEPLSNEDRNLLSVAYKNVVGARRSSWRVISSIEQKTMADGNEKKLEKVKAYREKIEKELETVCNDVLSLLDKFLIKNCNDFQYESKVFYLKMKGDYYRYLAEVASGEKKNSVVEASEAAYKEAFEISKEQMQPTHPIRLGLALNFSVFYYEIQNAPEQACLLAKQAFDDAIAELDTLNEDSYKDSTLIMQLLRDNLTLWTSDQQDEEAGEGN
Experimental: The ability of each peptide to inhibit binding of 14-3-3 zeta to the phosphorylated peptide was then tested in a range of concentrations between 1 and 50 μM. 14-3-3 zeta was prepared according to the methods in Example 1 and binding affinities and specificities were determined using the peptides in Table 2. The 14-3-3 zeta fusion proteins (0.5-1.0 μM) were pre-incubated with a given peptide at concentrations between 1 μM and 50 μM. 14-3-3 zeta was then infused across a sensor chip surface which had been previously coupled with the phosphorylated Raf-259 peptide (SEQ ID NO: 4). IC50 values were determined by plotting the concentration of competitor peptide required to achieve a 50% reduction in equilibrium binding.
(§1) There are seven known isoforms of 14-3-3 which form homo- and heterodimers in vivo. If different isoforms of 14-3-3 could bind to proteins with distinct specificities, heterodimeric forms of 14-3-3 might function as modular linker proteins, bringing together different proteins into a single complex. We were, therefore, interested in determining whether different 14-3-3 isoforms recognize phosphoserine in a sequence specific fashion. This hypothesis was tested by expressing and purifying three other 14-3-3 isoforms, eta, beta and tau, and measuring their affinity towards the panel of phosphorylated peptides generated above. Using the Surface Plasmon Resonance method, the "on" and "off" rates for 14-3-3 binding to the phosphorylated Raf-259 peptide were calculated (Table 6).
Competitive inhibition with the mutated phosphorylated Raf-1 peptides was used to determine whether their specificities were similar (Table 7). In each case, the calculated IC50 s were very similar to those calculated for 14-3-3 zeta.

14-3-3 eta [2] = target: T2, 14-3-3 eta; experiment: Surface plasmon resonance kinetics, 14-3-3 eta binding to phosphorylated Raf-259 peptide; conditions: isoform eta
Experimental: Because the surface plasmon resonance detects binding in real time, this method can be used to directly determine the rates of association (kon) and dissociation (koff). For these kinetic measurements, GST/14-3-3 fusion proteins were injected over a range of concentrations between 200 nM and 5 μM. The "on" rate, kon, was determined by calculating dR/dt for the initial linear portion of association using the Biaevaluation software (Pharmacia). Because ligand rebinding to the sensor chip can affect the "off" rate (koff, Panayotou et al. Mol Cell Biol 13:3567-76, 1993 which is incorporated by reference), we measured the "off" rate in the presence of 50 μM free ligand by using the coinject function of the Biacore. The "off" rate measured in the absence of 50 μM free ligand was approximately 10-fold lower.
as §1

CC(C)C[C@H](N)C(=O)N[C@@H](CO)C(=O)N[C@@H](CCC(N)=O)C(=O)N[C@@H](CCCNC(=N)N)C(=O)N[C@@H](CCC(N)=O)C(=O)N[C@@H](CCCNC(=N)N)C(=O)N[C@@H](CO)C(=O)N[C@H](C(=O)N[C@@H](COP(=O)(O)O)C(=O)N[C@H](C(=O)N1CCC[C@H]1C(=O)N[C@@H](CC(N)=O)C(=O)N[C@H](C(=O)N[C@@H](Cc1c[nH]cn1)C(=O)N[C@@H](C)C(=O)O)C(C)C)[C@@H](C)O)[C@@H](C)O [pS-Raf-259] (H-LSQRQRST[pS]TPNVHA-OH)
pIC50 (14-3-3 zeta; corrected for 7-12% efficiency of in vitro phosphorylation, read-out: true IC50): 6.62 to 7.15 | pIC50 (14-3-3 zeta; not corrected for efficiency of phosphorylation, read-out: IC50): 5.70 to 6.00 | pIC50 (14-3-3 eta [1]): 5.30 | pKd (14-3-3 eta [2]): 6.89 | koff (14-3-3 eta [2]): 0.0029 s⁻¹ | kon (14-3-3 eta [2]): 22600 M⁻¹ s⁻¹
